Assays:
[1] = biological target: T1, Beta-secretase 1 (Homo sapiens, UniProt P56817)
Description: Inhibition of BACE1 mediated human Swedish amyloid precursor protein peptide hydrolysis by HTRF assay

[2] = biological target: T1, Beta-secretase 1; assay: Inhibition of BACE1 mediated human Swedish amyloid precursor protein peptide hydrolysis at 500 uM by HTRF assay
[3] = biological target: T1, Beta-secretase 1; assay: Inhibition of BACE1 by fragment-based NMR screening method
[4] = biological target: T2, Cathepsin D (Homo sapiens, UniProt P07339); assay: Inhibition of human cathepsin D at 50 uM preincubated for 30 mins
[5] = in vivo; settings: rat, plasma, po, 10 mg/kg
[6] = Ratio of drug level in brain to plasma of rat at 10 mg/kg, po; type: ADME, organism-based; set-up: dose 10 mg/kg, route oral
[7] = Dissociation constant, pKa of the compound; type: physicochemical
[8] = biological target: T1, Beta-secretase 1; assay: Inhibition of BACE1 mediated hydrolysis of human amyloid precursor protein with Swedish and London mutation in HEK293 cells by ELISA; type: cell-based
[9] = biological target: T2, Cathepsin D; assay: Inhibition of human cathepsin D preincubated for 30 mins

T1 sequence (P56817 whole entry): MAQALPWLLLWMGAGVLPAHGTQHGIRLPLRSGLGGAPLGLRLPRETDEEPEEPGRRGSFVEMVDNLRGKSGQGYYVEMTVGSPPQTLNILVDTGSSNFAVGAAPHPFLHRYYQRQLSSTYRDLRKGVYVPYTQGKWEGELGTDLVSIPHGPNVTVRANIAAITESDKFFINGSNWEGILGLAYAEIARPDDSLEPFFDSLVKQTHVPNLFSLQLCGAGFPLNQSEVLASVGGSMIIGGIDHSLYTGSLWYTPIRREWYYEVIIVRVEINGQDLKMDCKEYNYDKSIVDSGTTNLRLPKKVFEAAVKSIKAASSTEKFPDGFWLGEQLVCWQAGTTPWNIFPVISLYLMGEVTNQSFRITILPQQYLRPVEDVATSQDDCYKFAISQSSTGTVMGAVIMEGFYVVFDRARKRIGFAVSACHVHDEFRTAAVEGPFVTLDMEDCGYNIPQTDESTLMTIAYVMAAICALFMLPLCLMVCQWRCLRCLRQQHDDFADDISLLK
T2 sequence (P07339 65-162 limits assumed): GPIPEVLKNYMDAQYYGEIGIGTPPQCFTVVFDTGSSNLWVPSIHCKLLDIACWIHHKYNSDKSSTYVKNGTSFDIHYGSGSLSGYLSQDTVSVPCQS
T2 sequence (P07339 169-412 limits assumed): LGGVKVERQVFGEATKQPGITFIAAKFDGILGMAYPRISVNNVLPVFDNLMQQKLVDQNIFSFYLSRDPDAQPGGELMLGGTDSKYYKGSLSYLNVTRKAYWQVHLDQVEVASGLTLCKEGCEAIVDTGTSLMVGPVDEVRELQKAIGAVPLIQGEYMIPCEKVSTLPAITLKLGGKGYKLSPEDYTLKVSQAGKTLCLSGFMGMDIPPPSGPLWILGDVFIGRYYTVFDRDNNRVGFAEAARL

## CCCCNC(=O)NCc1ccc(CN2C(=N)NC(CC3CCCCC3)(CC3CCCCC3)C2=O)cc1
[1]
  IC50: 2.1 µM

## CC(C)CC1(C)C(=O)NC(=N)N1Cc1cccc(Cl)c1 (stereo not drawn)
[2]
  inhibition: 6%

## CCCCNC(=O)NCc1ccc(CN2C(=N)NC(CCc3ccccc3)(CC(C)C)C2=O)cc1 (racemic)
[1]
  IC50: 50 µM

## CC1(C)NC(=N)N(Cc2cccc(Cl)c2)C1=O
[2]
  inhibition: 19%
[3]
  Kd: 200 µM

## CN1C(=O)C(c2ccccc2)(c2ccccc2)N=C1N
[4]
  inhibition: 38%
[5]
  AUC: 5 µM·h
[6]
  Kp: 1.8

## CCCCNC(=O)NCc1ccc(CN2C(=N)NC(C)(CC3CCCCC3)C2=O)cc1 (racemic)
[1]
  IC50: 5 µM

## CC(C)CC1(C)NC(=N)N(Cc2cccc(Cl)c2)C1=O (stereo not drawn)
[2]
  inhibition: 55%
[3]
  Kd: 123 µM
[7]
  pKa: 7.2

## CCCCNC(=O)NCc1ccc(CN2C(=N)NC(C)(Cc3ccccc3)C2=O)cc1 (racemic)
[2]
  inhibition: 64%

## CCCCNC(=O)NCc1ccc(CN2C(=N)NC(CCC3CCCCC3)(CC(C)C)C2=O)cc1 (racemic)
[1]
  IC50: 3 µM

## CC1(C)C(=O)NC(=N)N1CCc1cccc(Cl)c1
[7]
  pKa: 4.4

## CN1C(=N)N[C@](CCC2CCCCC2)(CC2CCCCC2)C1=O
[1]
  IC50: 0.605 µM
[8]
  IC50: 2.6 µM
[5]
  AUC: 1 µM·h
[6]
  Kp: 0.9
[9]
  Ki: 0.74 µM

## CCCCNC(=O)NCc1ccc(CN2C(=N)NC(C)(CC(C)C)C2=O)cc1 (stereo not drawn)
[1]
  IC50: 78 µM

## CC(C)CC1(C)NC(=N)N(Cc2ccc(CNC(=O)Nc3ccc(C#N)cc3)cc2)C1=O (racemic)
[1]
  IC50: 7 µM

## CCCCNC(=O)NCc1ccc(CN2C(=N)NC(CCC3CCCCC3)(CC3CCCCC3)C2=O)cc1 (stereo not drawn)
[1]
  IC50: 0.35 µM

— ChEMBL document CHEMBL1154761 (J Med Chem, 2010)
